The source of these data is patent US20090110727A1, “Extended release compositions of proton pump inhibitors” (Eisai R & D management Co., Ltd., priority 2004, published 2009).

A short description of the first data set: Osmotic pressure of saturated solutions by vapor pressure osmometer. The data set is classed as physicochemical. The settings on record: Hewlett Packard vapor pressure osmometer; ±10%. The protocol:
The osmotic solute may be initially present in excess and it can be in any physical form that is compatible with the proton pump inhibitor, the dosage form, and the osmopolymer. […] In the table, the osmotic pressure π, is in atmospheres, atm. The osmotic pressure is measured in a commercially available osmometer that measures the vapor pressure difference between pure water and the solution to be analyzed and, according to standard thermodynamic principles, the vapor pressure ratio is converted into osmotic pressure difference. […] The osmometer used for the present measurements is identified as Model 320B, Vapor Pressure Osmometer, manufactured by the Hewlett Packard Co., Avondale, Pa.
In the case of `[Cl-].[Na+]` [Sodium Chloride], the “π value (osmotic pressure)” value is reported as 345 atm.

Still in this data set, the particulars now being: saturated solutions at 37° C., in water.
For the molecule `[Cl-].[Na+]` [Sodium Chloride], the “Osmotic Pressure in atm.” value turned out to be 356 atm.
Consider `O.O.O.O.O.O.O.O=P([O-])([O-])O.[Na+].[Na+]` [Sodium Phosphate Dibasic 7 H2O], for which the “Osmotic Pressure in atm.” value was determined as 31 atm.
As for `O=P([O-])([O-])O.[Na+].[Na+]` [Sodium Phosphate Dibasic Anhydrous], the “Osmotic Pressure in atm.” value was found to be 29 atm.
As to `O.O.O.O.O.O.O.O.O.O.O.O.O=P([O-])([O-])O.[Na+].[Na+]` [Sodium Phosphate Dibasic 12 H2O], the “Osmotic Pressure in atm.” value was 31 atm.
Regarding `[Cl-].[K+]` [Potassium Chloride], the “Osmotic Pressure in atm.” value is listed as 245 atm.
Same read-out and setting: as for `OC[C@@H](O)[C@@H](O)[C@H](O)[C@H](O)CO` [Mannitol], the figure is 38 atm.
With Sodium Phosphate Monobasic H2O, the “Osmotic Pressure in atm.” value is reported as 28 atm.
On the same count and under the same terms, as for `O.O.O.O.O.O.O.O.O.O.O.O.O=P([O-])([O-])[O-].[Na+].[Na+].[Na+]` [Sodium Phosphate Tribasic 12 H2O], the figure is 36 atm.
Same read-out and setting: as for `O=C(CO)[C@@H](O)[C@H](O)[C@H](O)CO` [Fructose], the figure is 355 atm.
Same read-out and setting: as for `O=S(=O)([O-])[O-].[K+].[K+]` [Potassium Sulfate], the figure is 39 atm.
